The values below come from patent US6392083B1, “Process for producing salts of cyanobenzylamines” (Showa Denko K.K., priority 1999, dated 2002).

On data set [1], the source says:
These two compounds are difficult to separate through distillation due to the small difference between their respective boiling points.

Data set [2] in a line: Bulk density measured with Powder-tester Type PT-N. The format is physicochemical. The conditions noted are these: dried salt powder; Powder-tester Type PT-N (Hosokawa Micron); hydrochloride. As for the experimental part: The bulk density was measured with a Powder-tester Type PT-N (product of Hosokawa Micron).

SMILES strings stand for the structures.

`Cl.N#Cc1ccc(CN)cc1` [p-cyanobenzylamine hydrochloride]: the water solubility result in data set [1] was “much lower than that of p-xylylenediamine hydrochloride”.
In the case of `Cl.N#Cc1ccc(CN)cc1` [Example 1, p-cyanobenzylamine hydrochloride], the bulk density in data set [2] was 0.3 g/mL.
Same read-out and setting: as for `Cl.N#Cc1ccc(CN)cc1` [Example 7, p-cyanobenzylamine hydrochloride], the figure is 0.5 g/mL; as for `Cl.N#Cc1ccc(CN)cc1` [Comparative Example, p-Cyanobenzylamine hydrochloride, reference compound], 0.2 g/mL.
